Test results published in patent US20260250318A1, “COMPOSITIONS AND METHODS FOR CROSSING THE BLOOD BRAIN BARRIER” (VOYAGER THERAPEUTICS, INC., priority 2022, published 2026).

Legend:
[1] = system: brains, heart, liver, muscle, and DRG of the NHPs; assay: Maturation of TTM-001 and TTM-002 capsids, NGS enrichment in NHP tissues; format: in vivo; details: relative to AAV9 control
Procedure, shortened: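 Variants carry mutations within and flanking the loop IV peptide insert: positions 450–466 were triplet-randomized, while positions 449–466 received low-frequency point mutations. The combined pool went into two NHPs, and each peptide was scored by NGS enrichment ratio against AAV9.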

brain = assay: Matured TTM-001 and TTM-002 variants, NGS enrichment in mouse brain; format: in vivo, mice; details: relative to AAV9 control
[2] = NGS fold-enrichment of RNA, NHP brain
[3] = NGS fold-enrichment, NHP liver DNA
[4] = NGS fold-enrichment, NHP liver RNA
[5] = NGS fold-enrichment, NHP muscle
[6] = NGS fold-enrichment, mouse brain
[7] = NGS fold-enrichment, DRG of NHPs
[8] = NGS fold-enrichment, RNA, brain of NHPs
[9] = NGS fold-enrichment, heart of NHPs
[10] = NGS fold-enrichment, liver DNA of NHPs
[11] = NGS fold-enrichment, liver RNA of NHPs
[12] = NGS fold-enrichment, muscle of NHPs
[13] = NGS fold-enrichment, brain of mice
[14] = NGS fold-enrichment of matured AAV capsid variants, NHP brain, RNA

Row | Sequence | Fold Enrichment relative to AAV9, Brain (NHP) [1, 2] | Fold Enrichment relative to AAV9, DRG (NHP) ([1]; NGS fold-enrichment, NHP DRG) | Fold Enrichment relative to AAV9, Heart (NHP) ([1]; NGS fold-enrichment, NHP heart) | Fold Enrichment relative to AAV9, Liver DNA (NHP) [1, 3] | Fold Enrichment relative to AAV9, Liver RNA (NHP) [1, 4] | Fold Enrichment relative to AAV9, Muscle (NHP) [1, 5] | Fold Enrichment relative to AAV9, Brain (Mouse) (brain; [6]) | Fold Enrichment relative to AAV9, DRG (NHP) [1, 7] | Fold Enrichment relative to AAV9, Brain (NHP) [1, 8] | Fold Enrichment relative to AAV9, Heart (NHP) [1, 9] | Fold Enrichment relative to AAV9, Liver DNA (NHP) [1, 10] | Fold Enrichment relative to AAV9, Liver RNA (NHP) [1, 11] | Fold Enrichment relative to AAV9, Muscle (NHP) [1, 12] | Fold Enrichment relative to AAV9, Brain (Mouse) (brain; [13]) | Fold Enrichment relative to AAV9, Brain (NHP) [1, 14] | Fold Enrichment relative to AAV9, DRG (NHP) ([1]; NHP DRG) | Fold Enrichment relative to AAV9, Heart (NHP) ([1]; NHP heart) | Fold Enrichment relative to AAV9, Liver DNA (NHP) ([1]; NHP liver, DNA) | Fold Enrichment relative to AAV9, Liver RNA (NHP) ([1]; NHP liver, RNA) | Fold Enrichment relative to AAV9, Muscle (NHP) ([1]; NHP muscle) | further results
1 | KTISGHDSPHKTGHNQQT | 92.490 fold | 0.000 fold | 0.233 fold | 0.000 fold | 0.730 fold | 0.057 fold | 8.823 fold | – | – | – | – | – | – | – | – | – | – | – | – | – | –
2 | KTISGSGSPHSKAQYQHT | – | – | – | – | – | – | – | 0.000 fold | 66.739 fold | 0.000 fold | 0.191 fold | 0.000 fold | 0.000 fold | 59.822 fold | – | – | – | – | – | – | –
3 | KTITGHDSPHKSGQHLQT | 137.945 fold | 0.000 fold | 0.072 fold | 0.000 fold | 0.000 fold | 0.000 fold | 4.187 fold | – | – | – | – | – | – | – | – | – | – | – | – | – | –
4 | KTITGHDSPHKSGQNQWT | 81.658 fold | 0.000 fold | 0.090 fold | 0.000 fold | 0.936 fold | 0.000 fold | 7.744 fold | – | – | – | – | – | – | – | – | – | – | – | – | – | –
5 | KTITGSGSPHSKAQTQLT | – | – | – | – | – | – | – | 0.160 fold | 60.846 fold | 8.992 fold | 0.000 fold | 0.000 fold | 0.000 fold | 55.640 fold | – | – | – | – | – | – | –
6 | KTIYGHDSPHKSVQNQLT | 92.381 fold | 0.000 fold | 0.043 fold | 0.016 fold | 0.103 fold | 0.000 fold | 12.323 fold | – | – | – | – | – | – | – | – | – | – | – | – | – | –
7 | KTLNGNGSPHSKAQNLQT | – | – | – | – | – | – | – | – | – | – | – | – | – | – | 54.458 fold | 0.668 fold | 0.000 fold | 0.172 fold | 0.161 fold | 0.000 fold | Fold Enrichment relative to AAV9, Brain (Mouse) (brain; mouse brain): 159.134 fold
8 | KTNNGGGSPHSKAQNLQT | – | – | – | – | – | – | – | – | – | – | – | – | – | – | 54.963 fold | 0.000 fold | 0.000 fold | 0.089 fold | 0.000 fold | 0.000 fold | Fold Enrichment relative to AAV9, Brain (Mouse) (brain; mouse brain): 80.506 fold
9 | KTNNGHDSPHKSVQNQHT | 115.172 fold | 0.000 fold | 0.083 fold | 0.062 fold | 0.000 fold | 0.000 fold | 7.934 fold | – | – | – | – | – | – | – | – | – | – | – | – | – | –
10 | KTNNGSGSPHSKAQNQQY | – | – | – | – | – | – | – | 0.000 fold | 68.530 fold | 0.040 fold | 0.059 fold | 0.000 fold | 0.000 fold | 82.656 fold | – | – | – | – | – | – | –
11 | KTRDASGSPHSKAQNQQT | – | – | – | – | – | – | – | – | – | – | – | – | – | – | 52.861 fold | 0.000 fold | 0.000 fold | 0.402 fold | 1.062 fold | 0.010 fold | Fold Enrichment relative to AAV9, Brain (Mouse) (brain; mouse brain): 52.089 fold
12 | KTREISGSPHSKAQNQQT | – | – | – | – | – | – | – | – | – | – | – | – | – | – | 59.027 fold | 0.000 fold | 0.042 fold | 0.269 fold | 0.356 fold | 0.224 fold | Fold Enrichment relative to AAV9, Brain (Mouse) (brain; mouse brain): 51.696 fold
13 | KTSNASGSPHSKAHNQQT | – | – | – | – | – | – | – | 0.000 fold | 59.607 fold | 0.078 fold | 0.050 fold | 0.031 fold | 0.067 fold | 67.967 fold | – | – | – | – | – | – | –
14 | KTSNASGSPHSKAQHQQT | 165.206 fold | 0.000 fold | 0.000 fold | 0.082 fold | 0.000 fold | 0.000 fold | 40.558 fold | – | – | – | – | – | – | – | – | – | – | – | – | – | –
15 | KTSNASGSPHSKAQNQLT | – | – | – | – | – | – | – | 0.000 fold | 73.501 fold | 0.000 fold | 0.313 fold | 0.000 fold | 0.297 fold | 150.401 fold | – | – | – | – | – | – | –
16 | KTSNESGSPHSKAQNHQT | 75.720 fold | 0.000 fold | 0.000 fold | 0.217 fold | 0.169 fold | 0.000 fold | 70.590 fold | 0.000 fold | 75.720 fold | 0.000 fold | 0.217 fold | 0.169 fold | 0.000 fold | 70.590 fold | – | – | – | – | – | – | –
17 | KTSNGGGSPHSKAQNLQT | – | – | – | – | – | – | – | 0.000 fold | 68.311 fold | 0.052 fold | 0.000 fold | 0.000 fold | 0.000 fold | 124.871 fold | – | – | – | – | – | – | –
18 | KTSNGHDSPHKSGQNQPA | 75.834 fold | 0.000 fold | 0.056 fold | 0.000 fold | 0.000 fold | 0.000 fold | 8.501 fold | – | – | – | – | – | – | – | – | – | – | – | – | – | –
19 | KTSNGSGSPHSKAHYQQT | – | – | – | – | – | – | – | – | – | – | – | – | – | – | 54.414 fold | 0.000 fold | 0.251 fold | 0.204 fold | 0.249 fold | 0.000 fold | Fold Enrichment relative to AAV9, Brain (Mouse) (brain; mouse brain): 54.162 fold
20 | KTSNGSGSPHSKAQNLQI | – | – | – | – | – | – | – | – | – | – | – | – | – | – | 52.843 fold | 0.000 fold | 0.000 fold | 0.214 fold | 0.178 fold | 1.605 fold | Fold Enrichment relative to AAV9, Brain (Mouse) (brain; mouse brain): 74.823 fold
21 | KTSNGSGSPHSKAQNPPT | 91.528 fold | 0.000 fold | 0.000 fold | 0.039 fold | 0.000 fold | 0.000 fold | 51.541 fold | 0.000 fold | 91.528 fold | 0.000 fold | 0.039 fold | 0.000 fold | 0.000 fold | 51.541 fold | – | – | – | – | – | – | –
22 | KTSNGSGSPHSKAQNQST | – | – | – | – | – | – | – | – | – | – | – | – | – | – | 53.353 fold | 0.000 fold | 0.000 fold | 0.014 fold | 0.000 fold | 0.000 fold | Fold Enrichment relative to AAV9, Brain (Mouse) (brain; mouse brain): 120.897 fold
